# Key:
# [1] = test system: barnyardgrass; experiment: Test A preemergence; type: in vivo, Echinochloa crus-galli
# In short: (§1)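 Scoring: eye-based comparison with untreated controls, 0 for no effect through 100 for complete control, at about day 10. Treatments: directed soil spray preemergence; foliar spray postemergence on 2–10 cm plants at the one- to two-leaf stage. Medium: loam soil with sand.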
# [2] = test system: large (Lg) crabgrass; experiment: Test A preemergence; type: in vivo, Digitaria sanguinalis
# In short: as §1
# [3] = test system: barnyardgrass; experiment: Test A postemergence; type: in vivo, Echinochloa crus-galli; settings: 0 to 100 scale where 0 is no effect and 100 is complete control
# In short: as §1
# [4] = test system: pigweed; experiment: Test A postemergence; type: in vivo, Amaranthus retroflexus; settings: 0 to 100 scale where 0 is no effect and 100 is complete control
# In short: as §1
# [5] = test system: rice; experiment: Test B flooded paddy test; type: in vivo, Oryza sativa; settings: Flood, 250 g ai/ha; 0 to 100 scale where 0 is no effect and 100 is complete control
# In short: (§2)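 Plants were grown to the 2-leaf stage, then pots were flooded to 3 cm above the soil and compounds were applied directly into the paddy water. That depth was held throughout, and after 13 to 15 days in the greenhouse injury was rated visually against controls on a 0–100 scale (0 no effect, 100 complete control).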
# [6] = test system: sedge, umbrella; experiment: Test B flooded paddy test; type: in vivo, Cyperus difformis; settings: Flood, 250 g ai/ha; 0 to 100 scale where 0 is no effect and 100 is complete control
# In short: as §2
# [7] = test system: barnyardgrass; experiment: Test B flooded paddy test; type: in vivo, Echinochloa crus-galli; settings: Flood, 250 g ai/ha; 0 to 100 scale where 0 is no effect and 100 is complete control
# In short: as §2
# [8] = test system: large (Lg) crabgrass; experiment: Test C postemergence; type: in vivo, Digitaria sanguinalis
# In short: (§3)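 Preemergence: seeds sown in a loam soil–sand blend and sprayed with test chemical in a non-phytotoxic solvent mixture containing surfactant. Postemergence: plants at 2 to 18 cm (1- to 4-leaf stage) in peat-based medium, treated with the same formulation. Greenhouse 13 to 15 days, then visual rating 0 (no effect) to 100 (complete control).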
# [9] = test system: giant foxtail; experiment: Test C postemergence; type: in vivo, Setaria faberii
# In short: as §3
# [10] = test system: lambsquarters; experiment: Test C postemergence; type: in vivo, Chenopodium album
# In short: as §3
# [11] = test system: morningglory; experiment: Test C postemergence; type: in vivo, Ipomoea coccinea
# In short: as §3
# [12] = test system: yellow nutsedge; experiment: Test C postemergence; type: in vivo, Cyperus esculentus
# In short: as §3
# [13] = test system: barnyardgrass; experiment: Test C postemergence; type: in vivo, Echinochloa crus-galli
# In short: as §3
# [14] = test system: wild oat; experiment: Test C postemergence; type: in vivo, Avena fatua
# In short: as §3
# [15] = test system: chickweed; experiment: Test C postemergence; type: in vivo, Stellaria media
# In short: as §3
# [16] = 500 g ai/ha, 0 to 100 scale where 0 is no effect and 100 is complete control
# [17] = 31 g ai/ha, postemergence, visual rating, scale 0 to 100 (0 no effect, 100 complete control), 13 to 15 days
# [18] = 125 g ai/ha, postemergence, visual rating, scale 0 to 100 (0 no effect, 100 complete control)
# [19] = Postemergence, 62 g ai/ha, scale 0 to 100 (0 no effect, 100 complete control), 13 to 15 days
smiles,measurement,setting,value
N#Cc1cnn(-c2c(C#N)cccc2Oc2ncc(Cl)cn2)c1 [Compound 200],"Barnyardgrass plant response rating (0 to 100 scale, 0 is no effect, 100 is complete control)",[1]; 125 g ai/ha,80
same,Barnyardgrass plant response rating,[1]; [16],90
same,"Crabgrass, Large plant response rating (0 to 100 scale)",[2]; 125 g ai/ha,100
same,"Crabgrass, Large plant response rating",[2]; [16],100
same,Barnyardgrass plant response rating,[3]; 125 g ai/ha,80
same,"Plant response rating, Barnyardgrass",[3]; 500 g ai/ha,90
same,Pigweed plant response rating,[4]; 125 g ai/ha,100
same,"Plant response rating, Pigweed",[4]; 500 g ai/ha,100
same,"Plant response rating, Rice",[5],20
same,"Plant response rating, Sedge, Umbrella",[6],85
same,"Plant response rating, Barnyardgrass",[7],20
same,"Crabgrass, Large plant response rating",[8]; [17],5
same,"Plant response rating, Crabgrass, Large",[8]; [18],15
same,"Plant response rating (0 to 100), Crabgrass, Large","[8]; 250 g ai/ha, postemergence",20
same,"Plant response rating, Crabgrass, Large",[8]; [19],5
same,"Foxtail, Giant plant response rating",[9]; [17],5
same,"Plant response rating, Foxtail, Giant",[9]; [18],5
same,"Plant response rating (0 to 100), Foxtail, Giant","[9]; 250 g ai/ha, postemergence",15
same,"Plant response rating, Foxtail, Giant",[9]; [19],5
same,Lambsquarters plant response rating,[10]; [17],80
same,"Plant response rating, Lambsquarters",[10]; [18],85
same,"Plant response rating (0 to 100), Lambsquarters","[10]; 250 g ai/ha, postemergence",95
same,"Plant response rating, Lambsquarters",[10]; [19],80
same,Morningglory plant response rating,[11]; [17],85
same,"Plant response rating, Morningglory",[11]; [18],95
same,"Plant response rating (0 to 100), Morningglory","[11]; 250 g ai/ha, postemergence",95
same,"Plant response rating, Morningglory",[11]; [19],80
same,"Nutsedge, Yellow plant response rating",[12]; [17],5
same,"Plant response rating, Nutsedge, Yellow",[12]; [18],30
same,"Plant response rating (0 to 100), Nutsedge, Yellow","[12]; 250 g ai/ha, postemergence",35
same,"Plant response rating, Nutsedge, Yellow",[12]; [19],5
same,Barnyardgrass plant response rating,[13]; [17],0
same,"Plant response rating, Barnyardgrass",[13]; [18],10
same,"Plant response rating (0 to 100), Barnyardgrass","[13]; 250 g ai/ha, postemergence",15
same,"Plant response rating, Barnyardgrass","[13]; Postemergence, 62 g ai/ha, scale 0 to 100 (0 no effect, 100 complete control)",5
same,"Oat, Wild plant response rating",[14]; [17],15
same,"Plant response rating, Oat, Wild",[14]; [18],25
same,"Plant response rating (0 to 100), Oat, Wild","[14]; 250 g ai/ha, postemergence",20
same,"Plant response rating, Oat, Wild",[14]; [19],15
same,Chickweed plant response rating,[15]; [17],55
same,"Plant response rating, Chickweed",[15]; [18],95
same,"Plant response rating (0 to 100), Chickweed","[15]; 250 g ai/ha, postemergence",98
same,"Plant response rating, Chickweed",[15]; [19],75
